# Data reported in ChEMBL document CHEMBL3217608, “Alkaloids from Rutaceae: activities of canthin-6-one alkaloids and synthetic analogues on glioblastoma stems cells” (Medchemcomm, 2012).
# The source made the active and inactive calls. The rule behind the calls is not given here.
# How the values were obtained:
# TG1 [1] = assay: (§1) Antiproliferative against human TG1 cells at 30 to 300 uM after 24 hrs by WST-1 assay; format: functional
# TG1 [2] = assay: (§2) Antiproliferative against human TG1 cells at 300 uM after 24 hrs by WST-1 assay; format: functional
# [3] = Antiproliferative against human NSC-24 cells at 30 to 300 uM after 24 hrs by WST-1 assay; format: cell-based; details: nsc-24, 24 h
# [4] = Antiproliferative against human TG10 cells at 30 to 300 uM after 24 hrs by WST-1 assay; format: functional
# [5] = target: RAC-alpha serine/threonine-protein kinase (Homo sapiens) (UniProt P31749); assay: Inhibition of AKT phosphorylation in human TG1 cells at 300 uM after 30 mins by Western blot analysis; format: cell-based
# [6] = target: RAC-alpha serine/threonine-protein kinase (Homo sapiens) (UniProt P31749); assay: Inhibition of AKT phosphorylation in human TG10 cells at 300 uM after 30 mins by Western blot analysis; format: cell-based
# [7] = as §1; format: functional
# TG10 = assay: (§3) Antiproliferative against human TG10 cells at 300 uM after 24 hrs by WST-1 assay; format: functional
# [8] = Antiproliferative against human TG10 cells after 24 hrs by WST-1 assay; format: functional
# [9] = Antiproliferative against human TG1 cells after 24 hrs by WST-1 assay; format: functional
# [10] = target: RAC-alpha serine/threonine-protein kinase (Homo sapiens) (UniProt P31749); assay: Inhibition of AKT phosphorylation in human NSC-24 cells at 300 uM after 30 mins by Western blot analysis; format: cell-based
# [11] = as §2; format: functional
# [12] = Antiproliferative against human NSC-24 cells at 300 uM after 24 hrs by WST-1 assay; format: cell-based; details: nsc-24, 24 h
# [13] = as §3; format: functional
# Chain of RAC-alpha serine/threonine-protein kinase (Homo sapiens) (P31749 whole entry): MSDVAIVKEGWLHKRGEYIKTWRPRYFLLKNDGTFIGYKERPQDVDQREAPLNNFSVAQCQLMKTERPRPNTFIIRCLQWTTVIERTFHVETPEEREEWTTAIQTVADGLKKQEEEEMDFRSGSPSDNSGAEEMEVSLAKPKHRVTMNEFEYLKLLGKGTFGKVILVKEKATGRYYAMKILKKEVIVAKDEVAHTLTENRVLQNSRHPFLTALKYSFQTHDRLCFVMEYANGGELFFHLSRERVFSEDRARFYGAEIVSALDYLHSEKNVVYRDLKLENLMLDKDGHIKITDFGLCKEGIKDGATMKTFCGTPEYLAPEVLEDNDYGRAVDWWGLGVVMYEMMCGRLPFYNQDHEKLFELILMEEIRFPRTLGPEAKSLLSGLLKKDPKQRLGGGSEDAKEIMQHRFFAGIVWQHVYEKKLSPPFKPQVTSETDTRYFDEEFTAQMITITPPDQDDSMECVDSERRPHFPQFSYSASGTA
inhibition [5],inhibition [6],Compound,Activity (TG1 [1]),Activity [7] [%],also measured
,,COc1ccc2c(c1)c1ccnc3ccc(=O)n2c31,inactive,,
Active,Active,O=c1ccc2nccc3c4ccccc4n1c23 [CANTHIN-6-ONE],,40,Activity (TG1 [2]): Active; Activity [3]: 60%; Activity [4]: 35%; Activity (TG10): Active
,,Cn1nnc2c(C(N)=O)ncn2c1=O [TEMOZOLOMIDE],,,Activity [8]: >80%; Activity [9]: >80%
Active,Active,COc1cc2nccc3c4ccccc4n(c1=O)c23 [5-METHOXYCANTHINONE],,40,Activity [3]: 60%; inhibition [10]: Active; Activity [4]: 35%
Active,Active,O=c1ccc2nccc3c4cc(OCc5ccccc5)ccc4n1c23,,40,Activity [11]: 40%; Activity [12]: Non-toxic; inhibition [10]: inactive; Activity [13]: 85%
,,O=C1CCc2nccc3c4ccccc4n1c23,inactive,,
,,Nc1cc(=O)n2c3ccccc3c3ccnc1c32,inactive,,
,,O=c1ccc2c3c(cc[n+]2[O-])c2ccccc2n13,inactive,,
,,O=c1c2ccccc2c2nccc3c4ccccc4n1c32,inactive,,
